Columns and labels:
[1] = Muscle biopsy (vastus lateralis) ATP, creatine phosphate and creatine concentrations pre- and post-supplementation; type: in vivo, human
Experimental: The participants selected had the following characteristics:
Pre and post muscle biopsies were obtained from the vastus lateralis muscle. Samples were immediately frozen in liquid nitrogen and stored at −80° C. for later analysis. The frozen samples were weighed to the nearest 0.1 mg, freeze dried for 8 hours and reweighed. The tissue samples were extracted and then analyzed for creatine, creatine phosphate, and ATP content via […].

[2] = Blood chemistries pre- and post-supplementation; type: in vivo, human; design: ALT (SGPT): unit not given here
[3] = known; cited from earlier work
[4] = Post 5 days supplementation, muscle biopsy
[5] = post-suppl., 5 days, control 20 gm/day, experimental 10 gm/day creatine equivalent
[6] = male, human, blood, oral, 20 gm/day

With `CN(CC(=O)O)C(=N)N.O` [creatine•H2O, creatine monohydrate] the “skeletal muscle uptake (comparison of the two)” value ([1]; 50 g creatine equivalents total (creatine HCl/PEG) vs 100 g total (creatine.H2O)) was “similar”, the ATP [1, 4] was 22.7 ± 1.2 μM · gdw^−1 and the Creatine [1, 4] was 39.2 ± 2.7 μM · gdw^−1. The “Creatine · ATP^−1 (ratio)” value [1, 4] was 2.01 ± 0.33 ratio, the creatine phosphate [1, 4] was 75.6 ± 4.0 μM · gdw^−1 and the “creatine phosphate/ATP^−1” value [1, 4] was 3.34 ± 0.01. For the same compound, the ATP ([1]; Pre, muscle biopsy) was 21.6 ± 1.4 μM · gdw^−1, the Creatine ([1]; Pre, muscle biopsy) was 23.0 ± 4.2 μM · gdw^−1 and the “Creatine · ATP^−1 (ratio)” value ([1]; Pre, muscle biopsy) was 1.36 ± 0.36 ratio. The creatine phosphate ([1]; Pre, muscle biopsy) was 71.7 ± 4.8 μM · gdw^−1, the “creatine phosphate/ATP^−1” value ([1]; Pre, muscle biopsy) was 3.33 ± 0.01 and the “muscle concentrations of free creatine and total creatine by the end of the study” value ([1]; end of 5 days supplementation) was “significantly elevated”. For the same compound, the “CELLULAR ATP (molar ratio)” value [1, 5] was 5.07 ± 0.24 molar ratio, the “UPTAKE EFFICACY” value [1, 5] was 5.85 ± 1.85 and the free creatine [1, 5] was 39.2 ± 2.7 μM · gdw^−1. The “CELLULAR ATP (molar ratio)” value ([1]; pre-suppl., muscle biopsy) was 4.48 ± 0.30 molar ratio, the free creatine ([1]; pre-suppl., muscle biopsy) was 23.0 ± 4.2 μM · gdw^−1 and the “A/G Ratio (ratio)” value ([2]; Post) was 1.88 ± 0.06 ratio. The “ALT (SGPT)” value ([2]; Post) was 20.9 ± 4.1, the “AST (SGOT)” value ([2]; Post) was 23.3 ± 2.1 IU · L^−1 and the “Albumin, Serum” value ([2]; Post) was 4.5 ± 0.1 g/dL. For the same compound, the “Alk. Phosphatase” value ([2]; Post) was 85.4 ± 9.3 IU · L^−1, the BUN ([2]; Post) was 17.9 ± 1.8 mg/dL and the “BUN/Creatinine (ratio)” value ([2]; Post) was 16.3 ± 1.4 ratio. For the same compound, the “Bilirubin, Total” value ([2]; Post) was 0.6 ± 0.1 mg/dL, the “Calcium, Serum” value ([2]; Post) was 9.7 ± 0.1 mg/dL and the “Carbon Dioxide” value ([2]; Post) was 25.8 ± 0.7 mM · L^−1. The “Chloride, Serum” value ([2]; Post) was 101.9 ± 0.7 mM · L^−1, the “Creatinine, Serum” value ([2]; Post) was 1.09 ± 0.07 mg/dL and the “Globulin, Serum” value ([2]; Post) was 2.4 ± 0.1 g/dL. For the same compound, the “Glucose, Serum” value ([2]; Post) was 82.6 ± 4.3 mg/dL, the “Iron, Serum” value ([2]; Post) was 103.3 ± 14.2 µg/dL and the LDH ([2]; Post) was 157.9 ± 8.2 IU · L^−1. The “Phosphorus, Serum” value ([2]; Post) was 4.3 ± 0.3 mg/dL, the “Potassium, Serum” value ([2]; Post) was 4.4 ± 0.1 mM · L^−1 and the “Protein, Serum” value ([2]; Post) was 6.9 ± 0.1 g/dL. The “Sodium, Serum” value ([2]; Post) was 138.6 ± 0.6 mM · L^−1, the “Uric Acid, Serum” value ([2]; Post) was 4.7 ± 0.2 mg/dL and the “A/G Ratio (ratio)” value ([2]; Pre) was 1.77 ± 0.06 ratio. For the same compound, the “ALT (SGPT)” value ([2]; Pre) was 24.1 ± 4.5, the “AST (SGOT)” value ([2]; Pre) was 25.3 ± 3.6 IU · L^−1 and the “Albumin, Serum” value ([2]; Pre) was 4.5 ± 0.1 g/dL. For the same compound, the “Alk. Phosphatase” value ([2]; Pre) was 78.7 ± 10.1 IU · L^−1, the BUN ([2]; Pre) was 16.4 ± 1.4 mg/dL and the “BUN/Creatinine (ratio)” value ([2]; Pre) was 17.8 ± 1.3 ratio. For the same compound, the “Bilirubin, Total” value ([2]; Pre) was 0.6 ± 0.1 mg/dL, the “Calcium, Serum” value ([2]; Pre) was 9.9 ± 0.1 mg/dL and the “Carbon Dioxide” value ([2]; Pre) was 26.7 ± 0.4 mM · L^−1. For the same compound, the “Chloride, Serum” value ([2]; Pre) was 101.0 ± 0.5 mM · L^−1, the “Creatinine, Serum” value ([2]; Pre) was 0.93 ± 0.04 mg/dL and the “Globulin, Serum” value ([2]; Pre) was 2.6 ± 0.1 g/dL. For the same compound, the “Glucose, Serum” value ([2]; Pre) was 86.7 ± 2.7 mg/dL, the “Iron, Serum” value ([2]; Pre) was 88.8 ± 10.5 µg/dL and the LDH ([2]; Pre) was 155.0 ± 6.0 IU · L^−1. The “Phosphorus, Serum” value ([2]; Pre) was 4.3 ± 0.1 mg/dL, the “Potassium, Serum” value ([2]; Pre) was 4.3 ± 0.1 mM · L^−1 and the “Protein, Serum” value ([2]; Pre) was 7.1 ± 0.1 g/dL. The “Sodium, Serum” value ([2]; Pre) was 139.1 ± 0.5 mM · L^−1, the “Uric Acid, Serum” value ([2]; Pre) was 5.6 ± 0.3 mg/dL and the “breakdown in the stomach” value [3] was “rapidly breaks down in the stomach to form creatinine”. The “time of peak blood concentration post-ingestion” value (5 hour sampling, experimental peak may not have been fully achieved) was “two hours”, the “Integrated area under curve” value (5 hr sampling period post-ingestion) was 91.8 ± 5.5 mg · dL^−1 · 5 hrs^−1 and the “Circulating concentrations of creatine” value (Pre ingestion) was 0.47 ± 0.35 mg/dL. It also gave a concentration at 15 min [6] of 40.8 ± 11.4 µg/mL, a concentration at 30 min [6] of 138 ± 18.6 µg/mL and a concentration at 1 h [6] of 208 ± 18.7 µg/mL. For the same compound, the concentration at 2 h [6] was 260 ± 29.6 µg/mL, the concentration at 3 h [6] was 242 ± 12.9 µg/mL and the concentration at 4 h [6] was 162 ± 11.3 µg/mL. The concentration at 5 h [6] was 102 ± 8.5 µg/mL, the “time by which blood creatine concentrations increased significantly” value (post-ingestion) was no more than 15 min and the “peak blood concentration of creatine” value (within five hours post-ingestion) was 25.99 ± 2.96 mg/dL.

— US10231933B2, “Enteric coated, soluble creatine and polyethylene glycol composition for enhanced skeletal uptake of oral creatine” (CRYXA LLC, priority 2007, dated 2019)
